Usually IC50 stands for the concentration that inhibits the measured activity by half.

Like-named read-outs stand apart in the source and are kept apart here.

Assay [1] addresses T1, human recombinant Monoacylglycerol Lipase (Homo sapiens, UniProt Q99685).
T1 sequence (Q99685 1-303): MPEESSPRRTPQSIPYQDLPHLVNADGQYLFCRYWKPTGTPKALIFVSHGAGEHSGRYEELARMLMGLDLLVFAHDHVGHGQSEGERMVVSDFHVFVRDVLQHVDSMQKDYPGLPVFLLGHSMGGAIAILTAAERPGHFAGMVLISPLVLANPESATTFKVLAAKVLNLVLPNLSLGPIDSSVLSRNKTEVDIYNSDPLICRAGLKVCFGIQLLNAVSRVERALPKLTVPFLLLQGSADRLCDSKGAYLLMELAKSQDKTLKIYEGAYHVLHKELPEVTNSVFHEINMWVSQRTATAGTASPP
Put plainly: MAGL enzymatic assay (IC50; 7-HCA substrate added at T=0 min or T=30 min). Type of assay: biochemical. Particulars: geometric mean of 2-5 determinations unless otherwise indicated.

Assay [2] has as its target T1, human recombinant Monoacylglycerol Lipase. Put plainly: MAGL inactivation (kinact/KI from enzyme progress curves, T=0 min protocol). Particulars: from plot of Kobs vs. compound concentration, geometric mean of 2-5 determinations (b: ≥6).
[3] abbreviates: MAGL (T = 30 min) IC50, substrate 7-HCA added after 30 minute incubation (T=30 min).
The mark [4] stands for this setting: substrate 7-HCA added immediately (T=0 min), read-out: MAGL (T = 0 min) IC50.

For `O=C(O[C@H](CO)C(F)(F)F)N1CCC2(CC1)CC(n1ccc(C(F)(F)F)n1)CO2` (single isomer, unassigned) [Example 53], the IC50 was determined as 1 nM in assay [1] (setting [3]) and 9 nM in assay [1] (setting [4]). Also, the “MAGL kinact/KI” value in assay [2] is given as 66900 1/s per M.
The corresponding values for `O=C(O[C@H](CO)C(F)(F)F)N1CCC2(CC1)CC(n1cc(F)cn1)C2` [Example 64, (2R)-1,1,1-trifluoro-3-hydroxypropan-2-yl 2-(4-fluoro-1H-pyrazol-1-yl)-7-azaspiro[3.5]nonane-7-carboxylate] are 9 nM, 96 nM and 6260 1/s per M.
Turning to `CN(C1CC2(CCN(C(=O)O[C@H](CO)C(F)(F)F)CC2)C1)S(=O)(=O)CC1CC1` [Example 18, (2R)-1,1,1-Trifluoro-3-hydroxypropan-2-yl 2-{[(cyclopropylmethyl)sulfonyl](methyl)amino}-7-azaspiro[3.5]nonane-7-carboxylate], the figures for the IC50 in assay [1] (setting [3]) and in assay [1] (setting [4]) were 4 nM and 52 nM, respectively. Further, the “MAGL kinact/KI” value in assay [2] is on record as 14900 1/s per M.
As for `O=C(O[C@H](CO)C(F)(F)F)N1CCC2(CC1)CC(c1ccc(F)cc1)CO2` (single isomer, unassigned) [Example 34], the figures for the IC50 in assay [1] (setting [3]) and in assay [1] (setting [4]) were 4 nM and 48 nM, respectively. Further, in assay [2], the “MAGL kinact/KI” value was 7920 1/s per M.
On to `O=C(O[C@H](CO)C(F)(F)F)N1CCC2(CC1)CC(n1cc(C(F)(F)F)cn1)CO2` (single isomer, unassigned) [Example 9], for which the IC50 in assay [1] (setting [3]) came to 3 nM; in assay [1] (setting [4]) it was 16 nM. Moreover, in assay [2], the “MAGL kinact/KI” value is reported as 32800 1/s per M.
Take `O=C(O[C@H](CO)C(F)(F)F)N1CCC2(CC1)CC(n1ncc3ccccc31)CO2` (single isomer, unassigned) [Example 62]: the values for the IC50 in assay [1] (setting [3]) and in assay [1] (setting [4]) were 1 nM and 10 nM, respectively. The “MAGL kinact/KI” value in assay [2] is recorded as 18100 1/s per M.
On to `O=C(O[C@H](CO)C(F)(F)F)N1CCC2(CC1)CC(c1cc(C(F)(F)F)ccn1)C2` [Example 83, (2R)-1,1,1-trifluoro-3-hydroxypropan-2-yl 2-[4-(trifluoromethyl)pyridin-2-yl]-7-azaspiro[3.5]nonane-7-carboxylate], for which the IC50 in assay [1] (setting [3]) was 0.6 nM; in assay [1] (setting [4]), 5 nM. Further, the “MAGL kinact/KI” value in assay [2] is given as 156000 1/s per M.
The corresponding values for `O=C(O[C@H](CO)C(F)(F)F)N1CCC2(CC1)CC(Oc1cccc(C(F)F)n1)C2` [Example 90, (2R)-1,1,1-trifluoro-3-hydroxypropan-2-yl 2-{[6-(difluoromethyl)pyridin-2-yl]oxy}-7-azaspiro[3.5]nonane-7-carboxylate] are 0.5 nM, 9 nM and 71700 1/s per M.
For the molecule `O=C(O[C@H](CO)C(F)(F)F)N1CCC2(CC1)CC(c1ccnc(C(F)(F)F)c1)C2` [Example 68, (2R)-1,1,1-trifluoro-3-hydroxypropan-2-yl 2-[2-(trifluoromethyl)pyridin-4-yl]-7-azaspiro[3.5]nonane-7-carboxylate], the IC50 came out at 0.9 nM in assay [1] (setting [3]) and 9 nM in assay [1] (setting [4]). For the same molecule, the “MAGL kinact/KI” value in assay [2] is recorded as 88300 1/s per M.
With `O=C(O[C@H](CO)C(F)(F)F)N1CCC2(CCC(n3cc(F)cn3)CO2)CC1` (single isomer, unassigned) [Example 70], the IC50 in assay [1] (setting [3]) was 2 nM; in assay [1] (setting [4]), 22 nM. Further, the “MAGL kinact/KI” value in assay [2] is 40400 1/s per M.
With `O=C(O[C@H](CO)C(F)(F)F)N1CCC2(CC1)CC(c1cc(C(F)F)ccn1)CO2` (single isomer, unassigned) [Example 35], the IC50 worked out at 3 nM in assay [1] (setting [3]) and 31 nM in assay [1] (setting [4]). The “MAGL kinact/KI” value in assay [2] is reported as 23000 1/s per M.
With `COc1cc(C2CC3(CCN(C(=O)O[C@H](CO)C(F)(F)F)CC3)C2)ccn1` [Example 47, (2R)-1,1,1-trifluoro-3-hydroxypropan-2-yl 2-(2-methoxypyridin-4-yl)-7-azaspiro[3.5]nonane-7-carboxylate], the figures for the IC50 in assay [1] (setting [3]) and in assay [1] (setting [4]) were 2 nM and 17 nM, respectively. The “MAGL kinact/KI” value in assay [2] is given as 17100 1/s per M.
Take `CC(C)(C)c1ccn(C2COC3(CCN(C(=O)O[C@H](CO)C(F)(F)F)CC3)C2)n1` (single isomer, unassigned) [Example 52]: the IC50 was 1 nM in assay [1] (setting [3]) and 4 nM in assay [1] (setting [4]). In addition, the “MAGL kinact/KI” value in assay [2] is reported as 200000 1/s per M.
Regarding `O=C(O[C@H](CO)C(F)(F)F)N1CCC2(CC1)CC(c1cccc(C(F)(F)F)n1)CO2` (single isomer, unassigned) [Example 15], the results for the IC50 in assay [1] (setting [3]) and in assay [1] (setting [4]) were 7 nM and 67 nM, respectively. Also, in assay [2], the “MAGL kinact/KI” value is on record as 8230 1/s per M.
The corresponding values for `O=C(O[C@H](CO)C(F)(F)F)N1CCC2(CCC(n3cc(C(F)(F)F)cn3)CO2)CC1` (single isomer, unassigned) [Example 69] are 1 nM, 10 nM and 71900 1/s per M.
With `O=C(O[C@H](CO)C(F)(F)F)N1CCC2(CC1)CC(c1ccc(C(F)F)cn1)CO2` (single isomer, unassigned) [Example 39], the values for the IC50 in assay [1] (setting [3]) and in assay [1] (setting [4]) were 5 nM and 43 nM, respectively. Further, in assay [2], the “MAGL kinact/KI” value is recorded as 5180 1/s per M.
As to `O=C(O[C@H](CO)C(F)(F)F)N1CCC2(CC1)CC(Oc1ccccn1)C2` [Example 87, (2R)-1,1,1-trifluoro-3-hydroxypropan-2-yl 2-(pyridin-2-yloxy)-7-azaspiro[3.5]nonane-7-carboxylate], the IC50 in assay [1] (setting [3]) was determined as 2 nM; in assay [1] (setting [4]), 26 nM. In addition, in assay [2], the “MAGL kinact/KI” value is 32600 1/s per M.
With `O=C(O[C@H](CO)C(F)(F)F)N1CCC2(CC1)CC(Oc1ccc(F)cn1)C2` [Example 88, (2R)-1,1,1-trifluoro-3-hydroxypropan-2-yl 2-[(5-fluoropyridin-2-yl)oxy]-7-azaspiro[3.5]nonane-7-carboxylate], the figures for the IC50 in assay [1] (setting [3]) and in assay [1] (setting [4]) were 1 nM and 16 nM, respectively. Besides, in assay [2], the “MAGL kinact/KI” value was 33000 1/s per M.
With `O=C(O[C@H](CO)C(F)(F)F)N1CCC2(CC1)CC(c1ccnc(C(F)F)c1)C2` [Example 80, (2R)-1,1,1-trifluoro-3-hydroxypropan-2-yl 2-[2-(difluoromethyl)pyridin-4-yl]-7-azaspiro[3.5]nonane-7-carboxylate], the IC50 was determined as 1 nM in assay [1] (setting [3]) and 13 nM in assay [1] (setting [4]). The “MAGL kinact/KI” value in assay [2] is on record as 46200 1/s per M.
As to `Cc1nn(C2CC3(CCN(C(=O)O[C@H](CO)C(F)(F)F)CC3)C2)c(C)c1C` [Example 65, (2R)-1,1,1-trifluoro-3-hydroxypropan-2-yl 2-(3,4,5-trimethyl-1H-pyrazol-1-yl)-7-azaspiro[3.5]nonane-7-carboxylate], the values for the IC50 in assay [1] (setting [3]) and in assay [1] (setting [4]) were 4 nM and 44 nM, respectively. In assay [2], the “MAGL kinact/KI” value was 10600 1/s per M.
Take `O=C(O[C@H](CO)C(F)(F)F)N1CCC2(CC1)CC(c1ccccn1)CO2` (single isomer, unassigned) [Example 41]: the IC50 in assay [1] (setting [3]) came to 7 nM; in assay [1] (setting [4]), 76 nM. For the same molecule, the “MAGL kinact/KI” value in assay [2] is listed as 13200 1/s per M.
